US8778871B2 (Takeda Pharmaceutical Company Limited, priority 2004, dated 2014)
Starred links: 1 amine or outer side, 2 acyl side, 3 side chain; linkers in the order of their positions; H or OH if unused. Non-standard residues stand in square brackets, D forms with d. Residues, ends and D or L forms follow the SMILES beside them. *: point of attachment. Propanoyl(3-indol-3-yl) = O=C(CCc1c[nH]c2ccccc12)*; X3 = O=C(CNC(=S)[C@H](Cc1ccccc1)N[*:1])[*:2]; 2Nal = N[C@@H](Cc1ccc2ccccc2c1)C(=O)O; Arg(Me) = CNC(=N)NCCC[C@H](N)C(=O)O; Cha = N[C@@H](CC1CCCCC1)C(=O)O; X4 = NC(=S)[C@H](Cc1ccccc1)N*; azaGly = NNC(=O)O

Assays:
hOT7T175 [1] = molecular target: T1, hOT7T175 (Homo sapiens, UniProt Q969F8, L364H); assay type: cell-based; conditions: hOT7T175/CHO, FLIPR, evaluation for 40 seconds after initiation of the reaction
T1 construct: expressed in transfected cells
T1 sequence (Q969F8 whole entry L364H): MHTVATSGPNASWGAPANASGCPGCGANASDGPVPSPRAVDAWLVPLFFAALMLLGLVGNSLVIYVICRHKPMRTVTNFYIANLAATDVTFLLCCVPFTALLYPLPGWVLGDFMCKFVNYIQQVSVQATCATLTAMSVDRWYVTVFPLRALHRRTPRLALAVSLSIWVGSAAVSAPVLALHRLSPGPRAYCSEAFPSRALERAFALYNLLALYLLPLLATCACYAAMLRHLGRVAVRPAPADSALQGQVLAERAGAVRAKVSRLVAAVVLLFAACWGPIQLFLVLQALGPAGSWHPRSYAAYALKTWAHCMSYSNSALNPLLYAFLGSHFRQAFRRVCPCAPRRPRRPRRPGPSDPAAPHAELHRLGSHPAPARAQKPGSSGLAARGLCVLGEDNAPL
Method: The intracellular Ca ion level-increasing activity was measured using FLIPR as in TEST EXAMPLE 2.

hOT7T175 [2] = molecular target: T1, hOT7T175; test: Intracellular Ca ion level-increasing activity using FLIPR (180 seconds; specific activity to Metastin (1-54)); assay type: cell-based; conditions: hOT7T175/CHO, relative to Metastin (1-54) = 1

SMILES: CNC(=N)NCCC[C@H](NC(=O)[C@H](CC(C)C)NC(=O)CNC(=O)[C@H](Cc1ccccc1)NC(=O)[C@H](CO)NC(=O)[C@H](C)NC(=O)[C@H](Cc1c[nH]c2ccccc12)NC(=O)[C@H](CC(N)=O)NC(=O)[C@H](N)Cc1ccc(O)cc1)C(=O)N[C@@H](Cc1ccccc1)C(N)=O [Compound No. 210] (H-[dY]NWASFGL[Arg(Me)]F-NH2)
- Specific Act. (EC50/MS10 EC50) (hOT7T175 [1]): 9.3
- Specific Act. (intracellular Ca ion level-increasing activity, specific activity to Metastin (1-54)) (hOT7T175 [2]): 1

SMILES: CC(C)C[C@H](NC(=O)CNC(=O)[C@H](CC1CCCCC1)NC(=O)[C@H](CO)NC(=O)[C@H](CC(N)=O)NC(=O)[C@H](Cc1c[nH]c2ccccc12)NC(=O)[C@H](CC(N)=O)NC(=O)[C@@H](N)Cc1ccc(O)cc1)C(=O)N[C@@H](CCCNC(=N)N)C(=O)N[C@@H](Cc1ccccc1)C(N)=O [Compound No. 156, Tyr-Asn-Trp-Asn-Ser-Cha-Gly-Leu-Arg-Phe-NH2] (H-YNWNS[Cha]GLRF-NH2)
- Specific Act. (EC50/MS10 EC50) (hOT7T175 [1]): 0.9
- Specific Act. (intracellular Ca ion level-increasing activity, specific activity to Metastin (1-54)) (hOT7T175 [2]): 2

SMILES: CNC(=N)NCCC[C@H](NC(=O)[C@H](CC(C)C)NC(=O)CNC(=O)[C@H](Cc1ccccc1)NC(=O)[C@H](C)NC(=O)[C@H](CC(N)=O)NC(=O)[C@H](Cc1c[nH]c2ccccc12)NC(=O)[C@H](CC(N)=O)NC(=O)[C@H](N)Cc1ccc(O)cc1)C(=O)N[C@@H](Cc1ccccc1)C(N)=O [Compound No. 212] (H-[dY]NWNAFGL[Arg(Me)]F-NH2)
- Specific Act. (EC50/MS10 EC50) (hOT7T175 [1]): 1.1
- Specific Act. (intracellular Ca ion level-increasing activity, specific activity to Metastin (1-54)) (hOT7T175 [2]): 10

SMILES: CC(C)C[C@H](NC(=O)CNC(=O)[C@H](Cc1ccccc1)NC(=O)[C@H](CO)NC(=O)[C@H](CC(N)=O)NC(=O)CCc1c[nH]c2ccccc12)C(=O)N[C@@H](CCCNC(=N)N)C(=O)N[C@@H](Cc1ccccc1)C(N)=O [Compound No. 114, 3-(3-Indolyl)propionyl-Asn-Ser-Phe-Gly-Leu-Arg-Phe-NH2] ({Propanoyl(3-indol-3-yl)}-NSFGLRF-NH2)
- Specific Act. (EC50/MS10 EC50) (hOT7T175 [1]): 4.1
- Specific Act. (intracellular Ca ion level-increasing activity, specific activity to Metastin (1-54)) (hOT7T175 [2]): 3

SMILES: CC(C)C[C@H](NC(=O)CNC(=O)[C@H](Cc1ccccc1)NC(=O)[C@H](CO)NC(=O)[C@H](CC(N)=O)NC(=O)[C@H](Cc1c[nH]c2ccccc12)NC(=O)[C@H](CC(N)=O)NC(=O)[C@@H](N)Cc1ccc(O)cc1)C(=O)N[C@@H](CCCNC(=N)N)C(=O)N[C@@H](Cc1ccccc1)C(N)=S [Compound No. 128] (H-YNWNSFGLR-X4)
- Specific Act. (EC50/MS10 EC50) (hOT7T175 [1]): 0.5
- Specific Act. (intracellular Ca ion level-increasing activity, specific activity to Metastin (1-54)) (hOT7T175 [2]): 10

SMILES: CNC(=N)NCCC[C@H](NC(=O)[C@H](CC(C)C)NC(=O)NNC(=O)[C@H](Cc1ccccc1)NC(=O)[C@H](CO)NC(=O)[C@H](CC(N)=O)NC(=O)[C@H](Cc1c[nH]c2ccccc12)NC(=O)[C@H](N)Cc1ccc(O)cc1)C(=O)N[C@@H](Cc1ccccc1)C(N)=O [Compound No. 222, D-Tyr-Trp-Asn-Ser-Phe-AzaGly-Leu-Arg(Me)-Phe-NH2] (H-[dY]WNSF[azaGly]L[Arg(Me)]F-NH2)
- Specific Act. (EC50/MS10 EC50) (hOT7T175 [1]): 2.7
- Specific Act. (intracellular Ca ion level-increasing activity, specific activity to Metastin (1-54)) (hOT7T175 [2]): 10

SMILES: CC(C)C[C@H](NC(=O)CNC(=O)[C@H](Cc1ccccc1)NC(=O)[C@H](CO)NC(=O)[C@H](CC(N)=O)NC(=O)[C@H](Cc1c[nH]c2ccccc12)NC(=O)[C@H](CC(N)=O)NC(=O)[C@H](N)Cc1ccc(O)cc1)C(=O)N[C@@H](CCCNC(=N)N)C(=O)N[C@@H](Cc1ccccc1)C(N)=O [Compound No. 42]
- Specific Act. (EC50/MS10 EC50) (hOT7T175 [1]): 1.6
- Specific Act. (intracellular Ca ion level-increasing activity, specific activity to Metastin (1-54)) (hOT7T175 [2]): 30

SMILES: CNC(=N)NCCC[C@H](NC(=O)[C@H](CC(C)C)NC(=O)CNC(=O)[C@H](Cc1ccccc1)NC(=O)[C@@H](NC(=O)[C@H](CC(N)=O)NC(=O)[C@H](Cc1c[nH]c2ccccc12)NC(=O)[C@H](CC(N)=O)NC(=O)[C@H](N)Cc1ccc(O)cc1)[C@@H](C)O)C(=O)N[C@@H](Cc1ccccc1)C(N)=O [Compound No. 211] (H-[dY]NWNTFGL[Arg(Me)]F-NH2)
- Specific Act. (EC50/MS10 EC50) (hOT7T175 [1]): 1.3
- Specific Act. (intracellular Ca ion level-increasing activity, specific activity to Metastin (1-54)) (hOT7T175 [2]): 10

SMILES: CNC(=N)NCCC[C@H](NC(=O)[C@H](CC(C)C)NC(=O)CNC(=O)[C@H](Cc1ccccc1)NC(=O)[C@H](CO)NC(=O)[C@@H](NC(=O)[C@H](Cc1c[nH]c2ccccc12)NC(=O)[C@H](CC(N)=O)NC(=O)[C@H](N)Cc1ccc(O)cc1)[C@@H](C)O)C(=O)N[C@@H](Cc1ccccc1)C(N)=O [Compound No. 208] (H-[dY]NWTSFGL[Arg(Me)]F-NH2)
- Specific Act. (EC50/MS10 EC50) (hOT7T175 [1]): 7.3
- Specific Act. (intracellular Ca ion level-increasing activity, specific activity to Metastin (1-54)) (hOT7T175 [2]): 1

SMILES: CC(C)C[C@H](NC(=O)CNC(=O)[C@H](Cc1ccccc1)NC(=O)[C@H](CO)NC(=O)[C@H](CC(N)=O)NC(=O)[C@H](Cc1c[nH]c2ccccc12)NC(=O)[C@H](CC(N)=O)NC(=O)[C@@H](N)Cc1ccc(O)cc1)C(=O)N[C@@H](CCCCNC(=N)N)C(=O)N[C@@H](Cc1ccccc1)C(N)=O [Compound No. 97]
- Specific Act. (EC50/MS10 EC50) (hOT7T175 [1]): 2.9
- Specific Act. (intracellular Ca ion level-increasing activity, specific activity to Metastin (1-54)) (hOT7T175 [2]): 10

SMILES: CNC(=N)NCCC[C@H](NC(=O)[C@H](CC(C)C)NC(=O)CNC(=O)[C@H](Cc1ccccc1)NC(=O)[C@H](CO)NC(=O)[C@H](CC(N)=O)NC(=O)[C@H](Cc1c[nH]c2ccccc12)NC(=O)[C@H](N)Cc1ccc(O)cc1)C(=O)N[C@@H](Cc1ccccc1)C(N)=O [Compound No. 217] (H-[dY]WNSFGL[Arg(Me)]F-NH2)
- Specific Act. (EC50/MS10 EC50) (hOT7T175 [1]): 3.1
- Specific Act. (intracellular Ca ion level-increasing activity, specific activity to Metastin (1-54)) (hOT7T175 [2]): 20

SMILES: CC(C)C[C@H](NC(=O)CNC(=O)[C@H](Cc1ccc2ccccc2c1)NC(=O)[C@H](CO)NC(=O)[C@H](CC(N)=O)NC(=O)[C@H](Cc1c[nH]c2ccccc12)NC(=O)[C@H](CC(N)=O)NC(=O)[C@@H](N)Cc1ccc(O)cc1)C(=O)N[C@@H](CCCNC(=N)N)C(=O)N[C@@H](Cc1ccccc1)C(N)=O [Compound No. 152, Tyr-Asn-Trp-Asn-Ser-Nal(2)-Gly-Leu-Arg-Phe-NH2] (H-YNWNS[2Nal]GLRF-NH2)
- Specific Act. (EC50/MS10 EC50) (hOT7T175 [1]): 1.4
- Specific Act. (intracellular Ca ion level-increasing activity, specific activity to Metastin (1-54)) (hOT7T175 [2]): 5

SMILES: CNC(=N)NCCC[C@H](NC(=O)[C@H](CC(C)C)NC(=O)NNC(=O)[C@H](Cc1ccccc1)NC(=O)[C@H](CO)NC(=O)[C@H](CC(N)=O)NC(=O)[C@@H](Cc1c[nH]c2ccccc12)NC(=O)[C@H](N)Cc1ccc(O)cc1)C(=O)N[C@@H](Cc1ccccc1)C(N)=O [Compound No. 242, D-Tyr-D-Trp-Asn-Ser-Phe-AzaGly-Leu-Arg(Me)-Phe-NH2] (H-[dY][dW]NSF[azaGly]L[Arg(Me)]F-NH2)
- Specific Act. (EC50/MS10 EC50) (hOT7T175 [1]): 1.4
- Specific Act. (intracellular Ca ion level-increasing activity, specific activity to Metastin (1-54)) (hOT7T175 [2]): 2

SMILES: CC(=O)N[C@@H](Cc1ccc(O)cc1)C(=O)N[C@@H](CC(N)=O)C(=O)N[C@@H](Cc1c[nH]c2ccccc12)C(=O)N[C@@H](CC(N)=O)C(=O)N[C@@H](CO)C(=O)N[C@@H](Cc1ccccc1)C(=O)NCC(=O)N[C@@H](CC(C)C)C(=O)N[C@@H](CCCNC(=N)N)C(=O)N[C@@H](Cc1ccccc1)C(N)=O [Compound No. 30]
- Specific Act. (intracellular Ca ion level-increasing activity, specific activity to Metastin (1-54)) (hOT7T175 [2]): 10

SMILES: CC(C)C[C@H](NC(=O)CNC(=S)[C@H](Cc1ccccc1)NC(=O)[C@H](CO)NC(=O)[C@H](CC(N)=O)NC(=O)[C@H](Cc1c[nH]c2ccccc12)NC(=O)[C@H](CC(N)=O)NC(=O)[C@@H](N)Cc1ccc(O)cc1)C(=O)N[C@@H](CCCNC(=N)N)C(=O)N[C@@H](Cc1ccccc1)C(N)=O [Compound No. 166, Tyr-Asn-Trp-Asn-Ser-PheΨ(CSNH)Gly-Leu-Arg-Phe-NH2] (H-YNWNS[X3]LRF-NH2)
- Specific Act. (intracellular Ca ion level-increasing activity, specific activity to Metastin (1-54)) (hOT7T175 [2]): 5
